Source: patent US9718790B2, “Triazine derivative and pharmaceutical composition having an analgesic activity comprising the same” (SHIONOGI & CO., LTD., priority 2010, dated 2017)

Biological target: human P2X3 receptor (Homo sapiens (Human), UniProt P56373)
Assay: Evaluation of human P2X3 receptor inhibitory activity (Fluo-3 calcium fluorescence, FDSS 3000, ATP stimulation);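 also: stimulus was 50 nM ATP with fluorescence followed for 3 min, and the response per well was peak post-ATP fluorescence divided by the reading at measurement start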
Format: cell-based
Conditions: human P2X3 receptor, Test Example 1

human P2X3 receptor, sequence (P56373 whole entry): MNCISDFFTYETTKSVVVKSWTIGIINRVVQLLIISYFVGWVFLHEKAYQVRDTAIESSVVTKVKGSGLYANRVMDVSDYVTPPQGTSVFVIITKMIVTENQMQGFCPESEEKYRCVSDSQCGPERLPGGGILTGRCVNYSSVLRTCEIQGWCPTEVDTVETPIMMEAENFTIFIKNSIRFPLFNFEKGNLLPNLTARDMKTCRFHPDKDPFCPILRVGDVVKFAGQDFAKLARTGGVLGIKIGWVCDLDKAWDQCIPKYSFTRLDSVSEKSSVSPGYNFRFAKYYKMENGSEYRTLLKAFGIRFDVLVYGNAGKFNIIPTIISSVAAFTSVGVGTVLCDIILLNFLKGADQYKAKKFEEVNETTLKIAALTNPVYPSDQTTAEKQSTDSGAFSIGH

Structure (SMILES)	IC50 [nM]
Cc1ccc(Cn2c(=O)n(C)c(=O)[nH]/c2=N\c2ccc(Oc3ccc(C(=O)O)cn3)cc2)cc1 [Compound I-2401]	18
COC(=O)c1ccc(Oc2ccc(/N=c3\[nH]c(=O)n(C)c(=O)n3Cc3ccc(Cl)cc3)cc2)cn1 [Compound I-2402]	3
Cc1ccc(Cn2c(=O)n(C)c(=O)[nH]/c2=N\c2ccc(Oc3nccc(C(=O)O)n3)cc2)cc1 [Compound I-2403]	61
CCn1c(=O)[nH]/c(=N\c2ccc(Oc3nccc(C(=O)O)n3)cc2)n(Cc2ccc(C)cc2)c1=O [Compound I-2404]	16
Cn1c(=O)[nH]/c(=N\c2ccc(Oc3nccc(C(=O)O)n3)cc2)n(Cc2ccc(Cl)cc2)c1=O [Compound I-2405]	62
Cn1c(=O)[nH]/c(=N\c2ccc(Oc3ccc(C(N)=O)nc3)cc2)n(Cc2ccc(Cl)cc2)c1=O [Compound I-2406]	10
Cn1c(=O)[nH]/c(=N\c2ccc(Oc3ccc(C(N)=O)cn3)cc2)n(Cc2ccc(Cl)cc2)c1=O [Compound I-2407]	9
O=c1[nH]/c(=N\c2ccc(Oc3ccon3)cc2)n(Cc2ccc(Cl)cc2)c(=O)n1C[C@@H](O)CO [Compound I-2408]	14
Cn1c(=O)[nH]/c(=N\c2ccc(Oc3ncc(C(=O)O)s3)cc2)n(Cc2ccc(Cl)cc2)c1=O [Compound I-2409]	14
Cn1c(=O)[nH]/c(=N\c2ccc(Oc3nc(C(=O)O)cs3)cc2)n(Cc2ccc(Cl)cc2)c1=O [Compound I-2410]	36
Cn1c(=O)[nH]/c(=N\c2ccc(Oc3cc(C(=O)O)n[nH]3)cc2)n(Cc2ccc(Cl)cc2)c1=O [Compound I-2411]	166
Cn1ccc(Oc2ccc(/N=c3\[nH]c(=O)n(C[C@H](O)CO)c(=O)n3Cc3ccc(Cl)cc3)cc2)n1 [Compound I-2412]	84
Cn1ccc(Oc2ccc(/N=c3\[nH]c(=O)n(CCCO)c(=O)n3Cc3ccc(Cl)cc3)cc2)n1 [Compound I-2413]	36
Cn1c(=O)[nH]/c(=N\c2ccc(Oc3ncc(C(N)=O)s3)cc2)n(Cc2ccc(Cl)cc2)c1=O [Compound I-2414]	3
Cn1c(=O)[nH]/c(=N\c2ccc(Oc3nc(C(N)=O)cs3)cc2)n(Cc2ccc(Cl)cc2)c1=O [Compound I-2415]	9
Cn1c(=O)[nH]/c(=N\c2ccc(Oc3cc(C(N)=O)n[nH]3)cc2)n(Cc2ccc(Cl)cc2)c1=O [Compound I-2416]	54
CCn1c(=O)[nH]/c(=N\c2ccc(Oc3cc(C(N)=O)n[nH]3)cc2)n(Cc2ccc(Cl)cc2)c1=O [Compound I-2417]	41
O=c1[nH]/c(=N\c2ccc(Oc3ncccn3)cc2)n(Cc2ccc(Cl)cc2)c(=O)n1C[C@H](O)CO [Compound I-2418]	12
O=c1[nH]/c(=N\c2ccc(Oc3cncc(F)c3)cc2)n(Cc2ccc(Cl)cc2)c(=O)n1CCO [Compound I-2420]	9
CCn1c(=O)[nH]/c(=N\c2ccc(Oc3cccc(C(=O)O)n3)c(OC)c2)n(Cc2ccc(Cl)cc2)c1=O [Compound I-2423]	7
COc1cc(/N=c2\[nH]c(=O)n(C)c(=O)n2Cc2ccc(Cl)cc2)ccc1Oc1cccc(C(=O)O)n1 [Compound I-2424]	20
CCn1c(=O)[nH]/c(=N\c2ccc(Oc3ccnc(NC(=O)NC)c3)cc2)n(Cc2ccc(Cl)cc2)c1=O [Compound I-2425]	2
CCn1c(=O)[nH]/c(=N\c2ccc(Oc3ccc(NC(=O)NC)nc3)cc2)n(Cc2ccc(Cl)cc2)c1=O [Compound I-2426]	11

Structure (SMILES)	IC50 [nM]
CCn1c(=O)[nH]/c(=N\c2ccc(Oc3cnc(C#N)cn3)cc2)n(Cc2ccc(Cl)cc2)c1=O [Compound I-2427]	2
CC(=O)Nc1ccc(Oc2ccc(/N=c3\[nH]c(=O)n(C)c(=O)n3Cc3ccc(Cl)cc3)cc2)cn1 [Compound I-2429]	5
CC(=O)Nc1cc(Oc2ccc(/N=c3\[nH]c(=O)[nH]c(=O)n3Cc3ccc(Cl)cc3)cc2)ccn1 [Compound I-2430]	48
CC(=O)Nc1cc(Oc2ccc(/N=c3\[nH]c(=O)n(C)c(=O)n3Cc3ccc(Cl)cc3)cc2)ccn1 [Compound I-2431]	18
CCn1c(=O)[nH]/c(=N\c2ccc(Oc3ccnc(C(=O)NC)c3)c(F)c2)n(Cc2ccc(Cl)cc2)c1=O [Compound I-2432]	2
CNC(=O)c1cc(Oc2ccc(/N=c3\[nH]c(=O)n(C)c(=O)n3Cc3ccc(Cl)cc3)cc2F)ccn1 [Compound I-2433]	5
CCOC(=O)CCn1c(=O)[nH]/c(=N\c2ccc(Oc3ccon3)cc2)n(Cc2ccc(Cl)cc2)c1=O [Compound I-2434]	4
O=C(O)CCn1c(=O)[nH]/c(=N\c2ccc(Oc3ccon3)cc2)n(Cc2ccc(Cl)cc2)c1=O [Compound I-2435]	37
O=c1[nH]/c(=N\c2ccc(Oc3cccc(F)n3)cc2)n(Cc2ccc(Cl)cc2)c(=O)n1C[C@H](O)CO [Compound I-2436]	4
O=c1[nH]/c(=N\c2ccc(Oc3nccs3)cc2)n(Cc2ccc(Cl)cc2)c(=O)n1CC(CO)CO [Compound I-2437]	6
O=c1[nH]/c(=N\c2ccc(Oc3ccon3)c(F)c2)n(Cc2ccc(Cl)cc2)c(=O)n1CCO [Compound I-2438]	7
O=c1[nH]/c(=N\c2ccc(Oc3ccon3)c(F)c2)n(Cc2ccc(Cl)cc2)c(=O)n1CC(CO)CO [Compound I-2439]	4
O=c1[nH]/c(=N\c2ccc(Oc3ccon3)c(F)c2)n(Cc2ccc(Cl)cc2)c(=O)n1C[C@H](O)CO [Compound I-2440]	5
CCn1c(=O)[nH]/c(=N\c2ccc(Oc3cccc(Cl)n3)cc2)n(Cc2ccc(Cl)cc2)c1=O [Compound I-2441]	10
Cn1c(=O)[nH]/c(=N\c2ccc(Oc3ccc(C(=O)O)cn3)cc2)n(Cc2ccc(Cl)cc2)c1=O [Compound I-2442]	18
NC(=O)CCn1c(=O)[nH]/c(=N\c2ccc(Oc3ccon3)cc2)n(Cc2ccc(Cl)cc2)c1=O [Compound I-2443]	24
CCn1c(=O)[nH]/c(=N\c2ccc(Oc3cc(C(=O)O)ncn3)cc2)n(Cc2ccc(C)cc2)c1=O [Compound I-2444]	8
Cc1ccc(Cn2c(=O)n(C)c(=O)[nH]/c2=N\c2ccc(Oc3cc(C(=O)O)ncn3)cc2)cc1 [Compound I-2445]	13
Cn1c(=O)[nH]/c(=N\c2ccc(Oc3cccc(C#N)n3)cc2)n(C[C@H]2CC[C@H](C)CC2)c1=O [Compound I-2446]	1
Cn1c(=O)[nH]/c(=N\c2ccc(Oc3cc(C(=O)O)ncn3)cc2)n(Cc2ccc(Cl)cc2)c1=O [Compound I-2447]	10
O=c1[nH]/c(=N\c2ccc(Oc3nccs3)cc2)n(Cc2ccc(Cl)cc2)c(=O)n1CC(O)CO (stereo not shown) [Compound I-2448]	11
O=c1[nH]/c(=N\c2ccc(Oc3ccc4[nH]cnc4c3)cc2)n(Cc2ccc(Cl)cc2)c(=O)n1CCO [Compound I-2449]	9
CCn1c(=O)[nH]/c(=N\c2ccc(Oc3nc(C(=O)O)c(C)s3)cc2)n(Cc2ccc(Cl)cc2)c1=O [Compound I-2450]	8

Structure (SMILES)	IC50 [nM]
Cc1sc(Oc2ccc(/N=c3\[nH]c(=O)n(C)c(=O)n3Cc3ccc(Cl)cc3)cc2)nc1C(=O)O [Compound I-2451]	25
O=c1[nH]/c(=N\c2ccc(Oc3ccn[nH]3)cc2)n(Cc2ccc(Cl)cc2)c(=O)n1CCCO [Compound I-2452]	36
O=c1[nH]/c(=N\c2ccc(Oc3ccn[nH]3)cc2)n(Cc2ccc(Cl)cc2)c(=O)n1C[C@H](O)CO [Compound I-2453]	64
O=c1[nH]/c(=N\c2ccc(Oc3ccn[nH]3)cc2)n(Cc2ccc(Cl)cc2)c(=O)n1CC(CO)CO [Compound I-2454]	35
CCn1c(=O)[nH]/c(=N\c2ccc(Oc3ccn[nH]3)cc2)n(Cc2ccc(Cl)cc2)c1=O [Compound I-2455]	63
Cc1cnc(Oc2ccc(/N=c3\[nH]c(=O)n(CC(O)CO)c(=O)n3Cc3ccc(Cl)cc3)cc2)s1 (stereo not shown) [Compound I-2456]	8
Cc1cnc(Oc2ccc(/N=c3\[nH]c(=O)n(CCO)c(=O)n3Cc3ccc(Cl)cc3)cc2)s1 [Compound I-2457]	13
Cc1cnc(Oc2ccc(/N=c3\[nH]c(=O)n(CC(CO)CO)c(=O)n3Cc3ccc(Cl)cc3)cc2)s1 [Compound I-2458]	3
COC(=O)[C@H](C)n1c(=O)[nH]/c(=N\c2ccc(Oc3ccon3)cc2)n(Cc2ccc(Cl)cc2)c1=O [Compound I-2459]	7
COC(=O)[C@@H](C)n1c(=O)[nH]/c(=N\c2ccc(Oc3ccon3)cc2)n(Cc2ccc(Cl)cc2)c1=O [Compound I-2460]	35
Cn1c(=O)[nH]/c(=N\c2ccc(Oc3ccnc(C(=O)O)c3)c(F)c2)n(Cc2ccc(Cl)cc2)c1=O [Compound I-2461]	7
CCn1c(=O)[nH]/c(=N\c2ccc(Oc3ccnc(C(=O)O)c3)c(F)c2)n(Cc2ccc(Cl)cc2)c1=O [Compound I-2462]	7
Cn1c(=O)[nH]/c(=N\c2ccc(Oc3cccc(C(N)=O)n3)cc2)n(C[C@H]2CC[C@H](C)CC2)c1=O [Compound I-2463]	3
Cc1ccc(Cn2c(=O)n(C)c(=O)[nH]/c2=N\c2ccc(Oc3ccc(C(N)=O)cn3)cc2)cc1 [Compound I-2464]	10
Cn1c(=O)[nH]/c(=N\c2ccc(Oc3cccc(C(=O)O)n3)cc2)n(C[C@H]2CC[C@H](C)CC2)c1=O [Compound I-2465]	4
CCn1c(=O)[nH]/c(=N\c2ccc(Oc3cccc(C#N)n3)cc2)n(Cc2ccc(F)cc2)c1=O [Compound I-2466]	16
CCn1c(=O)[nH]/c(=N\c2ccc(Oc3cncc(C(=O)OC)n3)cc2)n(Cc2ccc(C)cc2)c1=O [Compound I-2467]	7
COC(=O)c1cncc(Oc2ccc(/N=c3\[nH]c(=O)n(C)c(=O)n3Cc3ccc(C)cc3)cc2)n1 [Compound I-2468]	20
COC(=O)c1cncc(Oc2ccc(/N=c3\[nH]c(=O)n(C)c(=O)n3Cc3ccc(Cl)cc3)cc2)n1 [Compound I-2469]	19
Cn1c(=O)[nH]/c(=N\c2ccc(Oc3cncc(C(N)=O)n3)cc2)n(Cc2ccc(Cl)cc2)c1=O [Compound I-2471]	5
CCn1c(=O)[nH]/c(=N\c2ccc(Oc3cncc(C(N)=O)n3)cc2)n(Cc2ccc(C)cc2)c1=O [Compound I-2472]	3
